Source: patent US20230310813A1, “DIMERIC NAPHTHALIMIDE COATING” (ALUCENT BIOMEDICAL, INC., priority 2020, published 2023)
“And” between values parts separate entries of the source, which are not always exact repeats. Identical values can stand only once. “Also recorded” adds a separate entry of the source.

Key:
Assay type in all cases: physicochemical
[1] = Solubility of Compound of Formula (I) in solvent systems
Experimental: (§1) The non-limiting exemplary and comparative solvent systems listed in Table 1 were prepared by combining the components of the solvent system at the indicated concentrations. The resulting mixture was then mixed at room temperature until a colorless, clear mixture was obtained. Compound of Formula (I) was then added in the indicated amount and the resulting mixture was mixed at room temperature until a yellow/orange translucent mixture was obtained.
(§2) The solubility and stability of solvent systems were determined.

[2] = Room temperature stability of coated balloons; settings: for amount of main impurity by LC / formation of impurities over time: 25° C., 60% RH, 0-24 months
Experimental: Angioplasty balloons coated with the Compound of Formula (I) (“10-8-10 compound”) were tested for their stability at 25° C. over a period of 0, 3, 6, and 12 months. The products described in Table 4 were placed in storage at 25° C.
Samples of each article were taken after 0, 3, 6, 12, 18 and 24 months of storage at 25° C., 60% RH.

[3] = Storage stability in solvent systems
Experimental: as §2

[4] = 10-8-10 stability over 8 hours in solvent systems
Experimental: The purity of a composition was analyzed by UPLC or HPLC.
as §1

[5] = Stability of coated balloon in reduced oxygen and reduced moisture packaging; settings: coated balloon stored in reduced oxygen and reduced moisture packaging
Experimental: Packaged coated balloons were prepared as follows. A coated balloon from Example 3 was placed in a foil pouch. The concentration of oxygen within the foil pouch was reduced by purging with nitrogen. A desiccant was added to the foil pouch before sealing the oxygen-purged foil pouch comprising the coated balloon and the desiccant.
At various time points after packaging, a coated balloon was taken out of its packaging. A sample of the coating on the coated balloon was removed and analyzed.

[6] = Stability of coated balloon coating after sterilization (UPLC/HPLC)
Experimental: A solvent system was prepared by combining ethanol and water and acetic acid in a volume ratio of 89.5:10:0.5. The resulting mixture was then mixed at room temperature until a colorless, clear mixture was obtained. Compound of Formula (I) was then added in the indicated amount and the resulting mixture was mixed at room temperature until a yellow/orange translucent mixture was obtained. This mixture was applied to a 5 mm×60 mm balloon by a pipetting method. The coated balloon was then dried to evaporate the solvent. A coated balloon with a coating thickness of 10 μg/mm^2 was obtained. The calculated amount of Compound of Formula (I) on the coated balloon was 7759 μg.
Coated balloons from Example 3 were sterilized either by ethylene oxide sterilization (EO), gamma sterilization (Gamma) or electron beam sterilization (E-Beam). A group of control balloons was left untreated (Control). After sterilization, a sample of the coating on each of the coated balloons was removed and analyzed.

[7] = coated balloon after electron beam sterilization (E-Beam)
[8] = coated balloon after ethylene oxide sterilization (EO)
[9] = coated balloon after gamma sterilization (Gamma)
[10] = coated balloon, Control (not sterilized)

NCCOCCOCCNc1ccc2c3c(cccc13)C(=O)N(CCOCCOCCN1C(=O)c3cccc4c(NCCOCCOCCN)ccc(c34)C1=O)C2=O [Compound of Formula (I), 2,2′-((ethane-1,2-diylbis(oxy))bis(ethane-2,1-diyl))bis(6-((2-(2-(2-aminoethoxy)ethoxy)ethyl)amino)-1H-benzo[de]isoquinoline-1,3(2H)-dione)]
Solubility >2% w/w ([1]; Table 1, solvent system 89.5% Ethanol/10% water/0.5% acetic acid): ✓
Solubility >2% w/w ([1]; Table 1, solvent system 99% Ethanol/1% Acetone): ✓
Solubility >2% w/w ([1]; Table 1, solvent system Ethanol/Acetone/BHT): ✓
Solubility >2% w/w ([1]; Table 1, solvent system Ethanol/MEK): ✓
Solubility >2% w/w ([1]; Table 2, EtOH/Acetic Acid (99.5:0.5)): ✓
Solubility >2% w/w ([1]; Table 2, EtOH/Water (90:10)): ✓
Solubility >2% w/w ([1]; Table 2, EtOH/Water (98:2)): ✓
Solubility >2% w/w ([1]; Table 2, EtOH/Water/Acetic Acid (89.5:10:0.5)): ✓
Solubility >2% w/w ([1]; Table 2, EtOH/Water/Acetic Acid (99.4:0.5:0.1)): ✓
degradation ([2]; coated article stored at room temperature): degrades appreciably
degradation rate over time at room temperature ([2]; coating further comprising at least one antioxidant): reduced
amount of main impurity by LC / formation of impurities over time ([2]; coating with BHT vs coating of only Compound of Formula (I)): lower amounts; also recorded: reduction
amount of main impurity by LC / formation of impurities over time ([2]; coating with tromethamine vs coating of only Compound of Formula (I)): lower amounts; also recorded: reduction
Storage stability ([3]; EtOH/Water (90:10)): ✓
Storage stability ([3]; EtOH/Water/Acetic Acid (89.5:10:0.5)): ✓
solubility and stability ([3]; ethanol, water, acetic acid (89.5:10:0.5) solvent system): exhibited both solubility and stability
solubility and stability ([3]; ethanol/water (90:10) solvent system): exhibited both solubility and stability
10-8-10 stability over 8 hours ([4]; solvent system 89.5% Ethanol/10% water/0.5% acetic acid): ✓
10-8-10 stability over 8 hours ([4]; solvent system 99.5% Ethanol/0.5% acetic acid): ✓
10-8-10 stability over 8 hours ([4]; solvent system Ethanol/IPA): ✓
degradation ([4]; solvent system comprising ethanol, water, and acetic acid): does not degrade appreciably
increase in impurity concentration [5]: minimal
change in impurity concentration ([6]; coated article after radiation sterilization (gamma irradiation, electron beam)): No change or minimal increase; also recorded: minimal increase
degradation ([6]; coated article subjected to ethylene oxide sterilization): degrades appreciably
Compound of Formula (I) (HPLC area-%) [6, 7]: 98.22 HPLC area-% and 98.33 HPLC area-% and 98.37 HPLC area-%
Total impurities (HPLC area-%) [6, 7]: 1.78 HPLC area-% and 1.67 HPLC area-% and 1.63 HPLC area-%
Compound of Formula (I) (HPLC area-%) [6, 8]: 94.75 HPLC area-% and 94.26 HPLC area-% and 94.35 HPLC area-%
Total impurities (HPLC area-%) [6, 8]: 5.25 HPLC area-% and 5.74 HPLC area-% and 5.65 HPLC area-%
Compound of Formula (I) (HPLC area-%) [6, 9]: 98.32 HPLC area-% and 98.37 HPLC area-% and 98.28 HPLC area-%
Total impurities (HPLC area-%) [6, 9]: 1.68 HPLC area-% and 1.63 HPLC area-% and 1.72 HPLC area-%
Compound of Formula (I) (HPLC area-%) [6, 10]: 98.33 HPLC area-% and 98.32 HPLC area-%
Total impurities (HPLC area-%) [6, 10]: 1.67 HPLC area-% and 1.68 HPLC area-%
